In test [1] the test system is non-transgenic (MC-24) Arabidopsis. In words: Germination assay, ARBTH germinating in medium containing selection agent (48-well plates). It is filed as in vivo, Arabidopsis thaliana. How it is done: Transgenic Arabidopsis thaliana plants are assayed for improved tolerance to saflufenacil, 1,5-dimethyl-6-thioxo-3-(2,2,7-trifluoro-3-oxo-4-(prop-2-ynyl)-3,4-dihydro-2H-benzo[b][1,4]oxazin-6-yl)-1,3,5-triazinane-2,4-dione (CAS 1258836-72-4/trifludimoxazin), flumioxazin, butafenacil, acifluorfen, lactofen, bifenox, sulfentrazone, and photosynthesis inhibitor diuron as negative control in 48-well plates. Therefore, T2 seeds are surface sterilized by stirring for 5 min in ethanol+water (70+30 by volume), rinsing one time with ethanol+water (70+30 by volume) and two times with sterile, deionized water. […] Growth inhibition is evaluated seven to ten days after seeding in comparison to wild type plants.
Transgenic Arabidopsis thaliana plants are assayed for improved tolerance to saflufenacil, 1,5-dimethyl-6-thioxo-3-(2,2,7-trifluoro-3-oxo-4-(prop-2-ynyl)-3,4-dihydro-2H-benzo[b][1,4]oxazin-6-yl)-1,3,5-triazinane-2,4-dione (CAS 1258836-72-4/trifludimoxazin), flumioxazin, butafenacil, acifluorfen, lactofen, bifenox, sulfentrazone, and photosynthesis inhibitor diuron as negative control, in 48-well plates. […] Growth inhibition was evaluated seven to ten days after seeding in comparison to wild type plants. […]

The subject of test [2] is transgenic Arabidopsis AMATU_PPO2_G211A_F420M. In words: Germination assay, transgenic ARBTH germinating in medium containing selection agent (48-well plates). The test is classed as in vivo, Arabidopsis thaliana. The conditions noted are these: for IC50: Arabidopsis thaliana. As for the experimental part:
(§1) Transgenic Arabidopsis thaliana plants are assayed for improved tolerance to saflufenacil, 1,5-dimethyl-6-thioxo-3-(2,2,7-trifluoro-3-oxo-4-(prop-2-ynyl)-3,4-dihydro-2H-benzo[b][1,4]oxazin-6-yl)-1,3,5-triazinane-2,4-dione (CAS 1258836-72-4/trifludimoxazin), flumioxazin, butafenacil, acifluorfen, lactofen, bifenox, sulfentrazone, and photosynthesis inhibitor diuron as negative control in 48-well plates. Therefore, T2 seeds are surface sterilized by stirring for 5 min in ethanol+water (70+30 by volume), rinsing one time with ethanol+water (70+30 by volume) and two times with sterile, deionized water. The seeds are resuspended in 0.1% agar dissolved in water (w/v) Four to five seeds per well are plated on solid nutrient medium consisting of half-strength murashige skoog nutrient solution, pH 5.8 (Murashige and Skoog (1962) Physiologia Plantarum 15: 473-497). Compounds are dissolved in dimethylsulfoxid (DMSO) and added to the medium prior solidification (final DMSO concentration 0.1%). Multi well plates are incubated in a growth chamber at 22° C., 75% relative humidity and 110 μmol Phot*m^−2*s^−1 with 14: 10 h light: dark photoperiod. Growth inhibition is evaluated seven to ten days after seeding in comparison to wild type plants.
as §1, with “negative control,” for “negative control”, “inhibition was” for “inhibition is”, “plants. Additionally, transgenic T1 Arabidopsis plants were tested for improved tolerance to herbicides in greenhouse studies with the following herbicides: saflufenacil, 1,5-dimethyl-6-thioxo-3-(2,2,7-trifluoro-3-oxo-4-(prop-2-ynyl)-3,4-dihydro-2H-benzo[b][1,4]oxazin-6-yl)-1,3,5-triazinane-2,4-dione (CAS 1258836-72-4/trifludimoxazin), flumioxazin, butafenacil, acifluorfen, lactofen, bifenox, sulfentrazone, and photosynthesis inhibitor diuron as negative control.” for “plants.”

Test [3] deals with transgenic Arabidopsis AMATU_PPO2_wild_type. The description is as above. The test is classed as in vivo, Arabidopsis thaliana. As for the experimental part:
as §1
as §1, with “negative control,” for “negative control”, “inhibition was” for “inhibition is”, “plants. Additionally, transgenic T1 Arabidopsis plants were tested for improved tolerance to herbicides in greenhouse studies with the following herbicides: saflufenacil, 1,5-dimethyl-6-thioxo-3-(2,2,7-trifluoro-3-oxo-4-(prop-2-ynyl)-3,4-dihydro-2H-benzo[b][1,4]oxazin-6-yl)-1,3,5-triazinane-2,4-dione (CAS 1258836-72-4/trifludimoxazin), flumioxazin, butafenacil, acifluorfen, lactofen, bifenox, sulfentrazone, and photosynthesis inhibitor diuron as negative control.” for “plants.”

Test [4] has as its system empty vector-transformed leaf discs. Briefly: PSII yield inhibition in tobacco leaf discs (imaging PAM chlorophyll fluorescence). The note with it: Nicotiana benthamiana, read-out: IC50 of PSII yield inhibition. It is filed as cell-based. The text has this:
Transient expression of mutated PPO sequences as wildtype or with respective mutations were done as described previously (Voinnet O., et al., 2003, The Plant Journal 33, 949-956). In brief, cloning of GOI and Agrobacterium transformation (strain: GV2260) were done as described in EXAMPLE 5. Young leaves of Nicotiana benthamiana were infiltrated with transgenic Agrobacterium suspension (OD^600 of 1.0) harboring binary vector constructs containing a GO/gene controlled by a promoter and terminator sequence. 48 h to 72 h after infiltration punches of leave discs (0.75 cm in diameter) were transferred to 6-well plates with medium (half strength Linsmaier-Skoog (Linsmaier and Skoog (1965) Physiol. Plant. 18: 100-127) nutrient solution or water) containing herbicide of interest in different concentrations. […]
Leaf discs, generated as described in EXAMPLE 14, expressing a protein encoded by GOI, were subjected to analysis on improved tolerance to herbicide treatment. For analysis of herbicide damage, chlorophyll fluorescence were identified as indicative marker (Dayan and Zaccaro (2012) Pest. Biochem. Physiol. 102: 189-197). […] PSII yield were measured as per manufacturer instructions.
Tolerance factors were calculated based on IC50 values of PSII yield inhibition of transformed versus empty vector-transformed leaf discs.

Molecules are shown by their SMILES. Where two headings read alike, the source gives them in different places.

A word on the IC50: it is the midpoint of a concentration-inhibition curve. Take `CC(C)N(C)S(=O)(=O)NC(=O)c1cc(-n2c(=O)cc(C(F)(F)F)n(C)c2=O)c(F)cc1Cl` [Saflufenacil]: the “Tolerance Factor (non transgeneic = 1.0)” value in test [1] was 1; in test [2] (Event D), 1000; in test [2] (Event M), 1000; in test [2] (Event P) it was 300; in test [2] (Event Q) it was 300; in test [2] (Event R) it was 300. Further, the “Tolerance Factor (non transgeneic = 1.0)” value in test [3] is on record as 10. Also, the IC50 in test [1] (Arabidopsis thaliana) was 0.025 µM; in test [2] (Event D) it was 25 µM; in test [2] (Event M), 25 µM; in test [2] (Event P) it was 7.5 µM; in test [2] (Event Q) it was 7.5 µM; in test [2] (Event R) it was 7.5 µM. Also, the figures for the 50% inhibitory concentration (IC50) in test [3] (Arabidopsis thaliana) and in test [4] (48 h) were 0.106 µM and 0.11 µM, respectively.
Regarding `C#CCN1C(=O)C(F)(F)Oc2cc(F)c(-n3c(=O)n(C)c(=S)n(C)c3=O)cc21` [1,5-dimethyl-6-thioxo-3-(2,2,7-trifluoro-3-oxo-4-(prop-2-ynyl)-3,4-dihydro-2H-benzo[b][1,4]oxazin-6-yl)-1,3,5-triazinane-2,4-dione], in test [4] (empty vector-transformed leaf discs, treated for 48 h), the concentration for half-maximal inhibition (IC50) is 0.011 µM.

Source of the values: patent US11879132B2, “Plants having increased tolerance to herbicides” (BASF AGRO B.V., priority 2016, dated 2024).
